The target in test [1] is T1, PRMT5 (Homo sapiens, UniProt O14744).
T1 construct: purchased Viva (custom protein)
The test can be described thus: PRMT5 biochemical IC50 assay with SAM as cofactor. To be noted: PRMT5, SAM as cofactor; read-out: SAM IC50.

The target in test [2] is T1, PRMT5. The test can be described thus: PRMT5 biochemical IC50 assay with no cofactor. To be noted: PRMT5, no cofactor; read-out: No Cofactor/rel IC50. The source says:
Table 1 indicates IC50 values (μM) against PRMT5 for exemplary compounds in the presence of SAM as cofactor, with no cofactor, and with MTA as cofactor, respectively (columns 4-6). […] Ki values can be calculated from the IC50 values as described in the Examples section. As detailed in the Examples section, for the assay performed in the presence of SAM, IC50=Ki×1.5 (Ki=IC50/1.5).

Test [3] addresses T1, PRMT5. The test can be described thus: PRMT5 biochemical IC50 assay with MTA as cofactor. To be noted: PRMT5, MTA as cofactor; read-out: MTA IC50.
Test [4] deals with HAP1 MTAP-intact cell line. The test can be described thus: SDMA in-cell western assay, HAP1 MTAP-intact. To be noted: Homo sapiens, HAP1, SDMA in-cell western, HAP1 MTAP-intact; read-out: MTAP HAP1 intact IC50. Type of test: cell-based. The procedure, abridged:
(§1)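 IC50 values come from SDMA signal quantified by in-cell western in two HAP1 lines, one with native MTAP levels and one lacking MTAP.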

Test [5] relates to HAP1 MTAP-deleted cell line. The test can be described thus: SDMA in-cell western assay, HAP1 MTAP-deleted. Type of test: cell-based. To be noted: for IC50: Homo sapiens, HAP1, SDMA in-cell western, HAP1 MTAP-deleted, read-out: HAP 1 MTAP deleted IC50; for MTAP intact/deleted ratio: IC50 ratio HAP1 MTAP-intact / HAP1 MTAP-deleted, SDMA in-cell western. The gist of the method: as §1

The subject of test [6] is HAP1 MTAP-deleted cell line. Nature of the test: Viability assay, MTAP-deleted cell line. Type of test: cell-based. To be noted: Homo sapiens, HAP1, viability IC50, MTAP-deleted cell line; read-out: HAP1 MTAP deleted viability. The source says:
Table 1 additionally indicates IC50 values in a viability assay for the MTAP-deleted cell line (column 10), indicating the effect of treatment with compound on cell survival.

IC50 and MTAP intact/deleted ratio data for 18 compounds are collected here from patent US11999727B2 (Tango Therapeutics, Inc., priority 2020, dated 2024).

T1 sequence (O14744 whole entry): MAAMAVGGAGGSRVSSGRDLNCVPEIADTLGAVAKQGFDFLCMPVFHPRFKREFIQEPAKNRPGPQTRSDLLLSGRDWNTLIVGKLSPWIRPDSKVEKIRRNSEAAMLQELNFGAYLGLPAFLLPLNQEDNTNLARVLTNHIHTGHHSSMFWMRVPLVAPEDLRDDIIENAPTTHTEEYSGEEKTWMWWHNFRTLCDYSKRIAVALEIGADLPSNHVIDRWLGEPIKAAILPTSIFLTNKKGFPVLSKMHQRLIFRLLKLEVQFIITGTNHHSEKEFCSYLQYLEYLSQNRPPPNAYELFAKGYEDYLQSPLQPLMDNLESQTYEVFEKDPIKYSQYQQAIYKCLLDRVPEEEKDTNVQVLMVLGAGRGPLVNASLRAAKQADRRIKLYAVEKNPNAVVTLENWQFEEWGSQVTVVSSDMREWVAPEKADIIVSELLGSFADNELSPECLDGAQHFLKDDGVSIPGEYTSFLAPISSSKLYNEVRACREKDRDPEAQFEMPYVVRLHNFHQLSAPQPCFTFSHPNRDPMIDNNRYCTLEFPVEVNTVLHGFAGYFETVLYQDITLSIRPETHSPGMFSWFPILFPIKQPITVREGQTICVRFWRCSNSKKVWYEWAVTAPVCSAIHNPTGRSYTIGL
T1 sequence (Q9BQA1 whole entry partner): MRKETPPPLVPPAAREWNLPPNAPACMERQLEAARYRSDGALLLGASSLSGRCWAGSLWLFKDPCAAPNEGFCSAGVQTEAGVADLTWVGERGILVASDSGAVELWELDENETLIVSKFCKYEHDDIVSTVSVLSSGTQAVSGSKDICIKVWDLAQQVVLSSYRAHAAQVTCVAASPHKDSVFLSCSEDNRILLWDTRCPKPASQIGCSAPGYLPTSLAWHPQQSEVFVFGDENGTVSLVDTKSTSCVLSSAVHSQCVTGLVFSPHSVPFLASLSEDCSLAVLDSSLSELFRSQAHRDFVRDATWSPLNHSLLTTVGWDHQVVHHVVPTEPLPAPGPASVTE

As for `C[C@@H]1CC[C@@H](c2ccc(Cl)cc2)N(C(=O)C(=O)Nc2cncc(C(N)=O)c2)C1` (single isomer, unassigned) [Compound 570], the IC50 at PRMT5 [1] was 50 to 500 nM; at PRMT5 [2], 50 to 500 nM; on PRMT5 [3], under 50 nM; in test [4], over 1000 nM; in test [5], under 100 nM; in test [6], 1000 to 10000 nM. In addition, in test [5], the MTAP intact/deleted ratio result was “A (an IC50 ratio greater than or equal to 10 fold)”.

`C[C@@H]1CC[C@@H](c2cc3cn[nH]c3cc2F)N(C(=O)C(=O)Nc2cncc(C(N)=O)c2)C1` (single isomer, unassigned) [Compound 571]: the IC50 on PRMT5 [1] was over 500 nM; at PRMT5 [2], over 500 nM; on PRMT5 [3] it was over 500 nM; in test [4], over 1000 nM; in test [5], over 1000 nM; in test [6], over 10000 nM. In addition, in test [5], the MTAP intact/deleted ratio result was “C (an IC50 ratio of less than 3 fold)”.

In the case of `Cc1cc([C@@H]2CC[C@@H](C)CN2C(=O)C(=O)Nc2cnc(N)c(C)c2)ccc1O` (single isomer, unassigned) [Compound 572], the IC50 on PRMT5 [1] is under 50 nM; on PRMT5 [2] it was 50 to 500 nM; at PRMT5 [3], 50 to 500 nM; in test [4] it was under 100 nM; in test [5] it was under 100 nM; in test [6], under 1000 nM. The MTAP intact/deleted ratio result in test [5] is “A (an IC50 ratio greater than or equal to 10 fold)”.

In the case of `Cc1cc(NC(=O)C(=O)N2C[C@@H](C)CC[C@@H]2c2cnc3[nH]ncc3c2)cnc1N` (single isomer, unassigned) [Compound 573], the IC50 was over 500 nM at PRMT5 [1]; over 500 nM at PRMT5 [2]; over 500 nM at PRMT5 [3]; over 1000 nM in test [4]; over 1000 nM in test [5]; over 10000 nM in test [6]. In addition, the MTAP intact/deleted ratio entry in test [5] is “C (an IC50 ratio of less than 3 fold)”.

Turning to `C[C@H]1CC[C@H](c2cnc3[nH]ncc3c2)N(C(=O)C(=O)Nc2cncc(C(N)=O)c2)C1` (single isomer, unassigned) [Compound 574], the IC50 at PRMT5 [1] is 50 to 500 nM; at PRMT5 [2], 50 to 500 nM; on PRMT5 [3], 50 to 500 nM; in test [4], over 1000 nM; in test [5] it was over 1000 nM; in test [6], over 10000 nM. The MTAP intact/deleted ratio result in test [5] was “B (an IC50 ratio greater than or equal to 3 fold but lower than 10 fold)”.

Regarding `Cc1cc(NC(=O)C(=O)N2C[C@@H](C)CC[C@@H]2c2ccc(C(F)(F)F)cc2)cnc1N` (single isomer, unassigned) [Compound 575], the IC50 at PRMT5 [1] is over 500 nM; on PRMT5 [2] it was over 500 nM; on PRMT5 [3], over 500 nM; in test [4], over 1000 nM; in test [5], over 1000 nM; in test [6], over 10000 nM. In test [5], the MTAP intact/deleted ratio entry is reported as “C (an IC50 ratio of less than 3 fold)”.

Consider `CC[C@@H]1CC[C@@H](c2ccccc2)N(C(=O)C(=O)Nc2cncc(C(N)=O)c2)C1` (single isomer, unassigned) [Compound 576], for which the IC50 at PRMT5 [1] was over 500 nM; on PRMT5 [2], over 500 nM; at PRMT5 [3], over 500 nM; in test [4], over 1000 nM; in test [5], over 1000 nM; in test [6], over 10000 nM. Also, the MTAP intact/deleted ratio entry in test [5] is given as “C (an IC50 ratio of less than 3 fold)”.

For the compound `C[C@@H]1CC[C@@H](c2ccccn2)N(C(=O)C(=O)Nc2cncc(C(N)=O)c2)C1` (single isomer, unassigned) [Compound 578], the IC50 on PRMT5 [1] was over 500 nM; at PRMT5 [2], over 500 nM; at PRMT5 [3], over 500 nM; in test [4], over 1000 nM; in test [5], over 1000 nM; in test [6] it was over 10000 nM. For the same compound, the MTAP intact/deleted ratio result in test [5] is reported as “C (an IC50 ratio of less than 3 fold)”.

On to `CCc1cc(NC(=O)C(=O)N2C[C@H](C)CC[C@H]2c2ccc3[nH]ncc3c2)cnc1N` (single isomer, unassigned) [Compound 579], for which the IC50 was over 500 nM at PRMT5 [1]; over 500 nM on PRMT5 [2]; over 500 nM on PRMT5 [3]; over 1000 nM in test [4]; over 1000 nM in test [5]; over 10000 nM in test [6]. Besides, in test [5], the MTAP intact/deleted ratio entry is recorded as “B (an IC50 ratio greater than or equal to 3 fold but lower than 10 fold)”.

Consider `Cc1cc(NC(=O)C(=O)N2C[C@H](C)CC[C@H]2c2ccc3c(c2)CNC3=O)cnc1N` (single isomer, unassigned) [Compound 581], for which the IC50 at PRMT5 [1] is under 50 nM; at PRMT5 [2] it was 50 to 500 nM; at PRMT5 [3], 50 to 500 nM; in test [4] it was 100 to 1000 nM; in test [5], under 100 nM; in test [6], 1000 to 10000 nM. Further, the MTAP intact/deleted ratio result in test [5] is given as “A (an IC50 ratio greater than or equal to 10 fold)”.

As to `C[C@H]1CC[C@H](c2ccc3sccc3c2)N(C(=O)C(=O)Nc2cncc(C(N)=O)c2)C1` (single isomer, unassigned) [Compound 585], the IC50 was under 50 nM at PRMT5 [1]; under 50 nM at PRMT5 [2]; under 50 nM at PRMT5 [3]; 100 to 1000 nM in test [4]; under 100 nM in test [5]; under 1000 nM in test [6]. The MTAP intact/deleted ratio result in test [5] is recorded as “A (an IC50 ratio greater than or equal to 10 fold)”.

Turning to `C[C@@H]1CC[C@@H](c2ccc3sccc3c2)N(C(=O)C(=O)Nc2cncc(C(N)=O)c2)C1` (single isomer, unassigned) [Compound 586], the IC50 on PRMT5 [1] was over 500 nM; on PRMT5 [2], over 500 nM; at PRMT5 [3] it was over 500 nM; in test [4] it was over 1000 nM; in test [5] it was over 1000 nM; in test [6], over 10000 nM. The MTAP intact/deleted ratio entry in test [5] is reported as “B (an IC50 ratio greater than or equal to 3 fold but lower than 10 fold)”.

Take `CCc1cc(NC(=O)C(=O)N2C[C@@H](C)CC[C@@H]2c2ccc3[nH]ncc3c2)cnc1N` (single isomer, unassigned) [Compound 589]: the IC50 was under 50 nM on PRMT5 [1]; under 50 nM on PRMT5 [2]; under 50 nM on PRMT5 [3]; 100 to 1000 nM in test [4]; under 100 nM in test [5]; under 1000 nM in test [6]. Moreover, in test [5], the MTAP intact/deleted ratio entry is on record as “A (an IC50 ratio greater than or equal to 10 fold)”.

As to `C[C@H]1CC[C@H](c2ccccn2)N(C(=O)C(=O)Nc2cncc(C(N)=O)c2)C1` (single isomer, unassigned) [Compound 590], the IC50 at PRMT5 [1] is under 50 nM; on PRMT5 [2], 50 to 500 nM; on PRMT5 [3], under 50 nM; in test [4], over 1000 nM; in test [5] it was under 100 nM; in test [6] it was 1000 to 10000 nM. Further, the MTAP intact/deleted ratio result in test [5] was “A (an IC50 ratio greater than or equal to 10 fold)”.

In the case of `Cc1cc(NC(=O)C(=O)N2C[C@@H](C)CC[C@@H]2c2ccc3c(c2)CNC3=O)cnc1N` (single isomer, unassigned) [Compound 591], the IC50 is over 500 nM on PRMT5 [1]; over 500 nM on PRMT5 [2]; over 500 nM at PRMT5 [3]; over 1000 nM in test [4]; over 1000 nM in test [5]; over 10000 nM in test [6]. In addition, the MTAP intact/deleted ratio result in test [5] is “C (an IC50 ratio of less than 3 fold)”.

As to `Cc1cc(NC(=O)C(=O)N2C[C@H](C)CC[C@H]2c2ccncc2)cnc1N` (single isomer, unassigned) [Compound 592], the IC50 was 50 to 500 nM at PRMT5 [1]; under 50 nM at PRMT5 [2]; 50 to 500 nM at PRMT5 [3]; 100 to 1000 nM in test [4]; under 100 nM in test [5]; 1000 to 10000 nM in test [6]. Further, in test [5], the MTAP intact/deleted ratio entry is recorded as “A (an IC50 ratio greater than or equal to 10 fold)”.

Regarding `Cc1cc([C@H]2CC[C@H](C)CN2C(=O)C(=O)Nc2cnc(N)c(C)c2)ccn1` (single isomer, unassigned) [Compound 593], the IC50 at PRMT5 [1] is over 500 nM; on PRMT5 [2] it was over 500 nM; on PRMT5 [3] it was over 500 nM; in test [4] it was over 1000 nM; in test [5], over 1000 nM; in test [6], over 10000 nM. Besides, the MTAP intact/deleted ratio result in test [5] is “B (an IC50 ratio greater than or equal to 3 fold but lower than 10 fold)”.

With `Cc1cc(NC(=O)C(=O)N2C[C@H](C)CC[C@H]2c2ccc(F)c(Cl)c2)cnc1N` (single isomer, unassigned) [Compound 596], the IC50 at PRMT5 [1] is 50 to 500 nM; at PRMT5 [2], under 50 nM; on PRMT5 [3] it was under 50 nM; in test [4], 100 to 1000 nM; in test [5] it was under 100 nM; in test [6] it was under 1000 nM. In test [5], the MTAP intact/deleted ratio result was “A (an IC50 ratio greater than or equal to 10 fold)”.
